From patent US10206907B2, “Compounds useful for the treatment of degenerative and inflammatory diseases” (GALAPAGOS NV, priority 2008, dated 2019)
Like-named read-outs stand apart in the source and are kept apart here.

Experiments:
[1] = molecular target: Recombinant human JAK1 catalytic domain (Homo sapiens (Human), UniProt P23458); assay: JAK1 inhibition assay; format: biochemical
How it was run: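 IC50 values come from dose-response series, with each point expressed as percent inhibition of cpm. Vehicle sets full activity and 10 μM staurosporine sets background. Incorporated radioactivity counted by scintillation after washing with 75 mM phosphoric acid.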

[2] = system: JAK-STAT signalling in HeLa cells; assay: JAK-STAT signalling assay (OSM-triggered pSTAT1(2)-luciferase reporter in HeLa cells); format: cell-based; settings: Homo sapiens; HeLa cells, OSM-triggered pSTAT1(2)-luciferase reporter; read-out: STAT signalling EC50
How it was run: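 Read-out is oncostatin M–driven pSTAT1(2)-luciferase activity, corrected by co-transfected LacZ β-galactosidase, in transiently transfected HeLa cells cultured overnight at 37 °C, 10% CO2. Inhibition percentages against positive and negative controls were plotted across doses to derive EC50.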

[3] = Microsomal stability, rat liver microsomes; format: in vitro ADME; settings: percentage of compound remaining after 60 minutes, 3 μM compound
How it was run: (§1)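 Percent parent remaining after 60 min was determined by LCMS against a time-zero sample quenched before microsome addition. Incubations ran at 37°C with liver microsomes and a G6PDH-based NADPH-regenerating cofactor mix. Quench was MeOH or ACN (1:1).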

[4] = molecular target: Recombinant human JAK2 catalytic domain (Homo sapiens (Human), UniProt O60674); assay: JAK2 inhibition assay; format: biochemical
Recombinant human JAK2 catalytic domain, sequence (O60674 808-1132): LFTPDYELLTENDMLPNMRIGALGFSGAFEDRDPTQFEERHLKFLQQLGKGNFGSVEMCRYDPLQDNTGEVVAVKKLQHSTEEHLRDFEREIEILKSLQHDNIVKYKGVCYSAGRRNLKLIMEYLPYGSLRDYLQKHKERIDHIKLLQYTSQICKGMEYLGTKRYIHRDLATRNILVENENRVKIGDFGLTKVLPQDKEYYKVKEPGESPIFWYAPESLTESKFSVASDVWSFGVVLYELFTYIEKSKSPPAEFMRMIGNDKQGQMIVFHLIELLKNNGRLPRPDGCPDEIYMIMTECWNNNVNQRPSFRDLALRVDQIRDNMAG
How it was run: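 Activity was taken as vehicle cpm minus cpm with 10 μM staurosporine, and inhibition was expressed on that scale. Incubation was 90 min at 30 °C, followed by acid quench, phosphoric acid washes and Microscint counting. Compounds were tested as dose series to obtain IC50.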

[5] = system: MMP13 in SW1353 cells; assay: OSM/IL-1β signaling assay (MMP13 levels in SW1353 cells); format: cell-based; settings: Homo sapiens; SW1353 cells, OSM and IL-1β triggered, MMP13 levels 48 hours after triggering; read-out: MMP13 EC50;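 note: secreted MMP13 captured by antibody, activated with APMA and its activity read by fluorescence, inhibition scaled between vehicle-treated triggered wells (0%) and untriggered wells (100%)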
[6] = molecular target: Recombinant human TYK2 catalytic domain (Homo sapiens (Human), UniProt P29597); assay: TYK2 inhibition assay; format: biochemical
Recombinant human TYK2 catalytic domain, sequence (P29597 871-1187): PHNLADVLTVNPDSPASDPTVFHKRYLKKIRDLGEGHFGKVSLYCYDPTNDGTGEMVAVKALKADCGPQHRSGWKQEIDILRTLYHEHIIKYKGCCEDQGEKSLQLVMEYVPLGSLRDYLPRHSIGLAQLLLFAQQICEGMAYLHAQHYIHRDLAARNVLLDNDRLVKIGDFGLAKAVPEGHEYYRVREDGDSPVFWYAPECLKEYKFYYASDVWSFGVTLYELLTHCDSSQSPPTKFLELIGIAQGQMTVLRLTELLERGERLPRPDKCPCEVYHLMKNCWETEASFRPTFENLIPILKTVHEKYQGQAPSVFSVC
Description: After 90 min at 30° C., reactions were stopped by adding of 25 μL/well of 150 mM phosphoric acid. […] Plates were washed 6 times with 300 μL per well of a 75 mM phosphoric acid solution and the bottom of the plates was sealed. 40 μL/well of Microscint-20 was added, the top of the plates was sealed and readout was performed using the Topcount (Perkin Elmer). Kinase activity was calculated by subtracting counts per minute (cpm) obtained in the presence of a positive control inhibitor (10 μM staurosporine) from cpm obtained in the presence of vehicle. The ability of a test compound to inhibit this activity was determined as: Percentage inhibition=((cpm determined for sample with test compound present−cpm determined for sample with positive control inhibitor) divided by (cpm determined in the presence of vehicle−cpm determined for sample with positive control inhibitor))*100%.
Dose dilution series were prepared for the compounds enabling the testing of dose-response effects in the TYK2 assay and the calculation of the IC50 for each compound.

[7] = Microsomal stability, human liver microsomes; format: in vitro ADME; settings: percentage of compound remaining after 60 minutes, 3 μM compound
How it was run: as §1

[8] = Caco2 permeability (bi-directional); format: in vitro ADME, human; settings: human, pH 7.4; for Papp A→B at 1 h, 10 µM: Caco-2, apical to basolateral, read-out: Papp (A2B); for efflux ratio at 1 h, 10 µM: Caco-2, ratio of PappB>A/PappA>B
How it was run: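 Compound concentrations in both chambers were measured by LC-MS/MS after 1 h incubation at 37 °C on an orbital shaker. Efflux ratio is PappB>A over PappA>B. Lucifer Yellow (50 μM in donor) confirmed layer integrity, with permeability of ≤100 nm/s required.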

[9] = molecular target: Recombinant human JAK3 catalytic domain (Homo sapiens (Human), UniProt P52333); assay: JAK3 inhibition assay; format: biochemical; settings: semi-quantitative score
Recombinant human JAK3 catalytic domain, sequence (P52333 781-1124): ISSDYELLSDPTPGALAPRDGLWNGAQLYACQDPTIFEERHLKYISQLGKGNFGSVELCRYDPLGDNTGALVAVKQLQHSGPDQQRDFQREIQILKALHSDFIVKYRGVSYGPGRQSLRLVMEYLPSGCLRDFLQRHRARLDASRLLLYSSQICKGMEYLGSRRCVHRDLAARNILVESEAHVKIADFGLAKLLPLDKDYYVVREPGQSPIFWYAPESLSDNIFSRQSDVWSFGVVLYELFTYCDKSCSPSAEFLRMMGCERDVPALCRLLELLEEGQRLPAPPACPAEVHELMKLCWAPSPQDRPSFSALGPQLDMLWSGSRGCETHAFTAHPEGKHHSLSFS

Recombinant human JAK1 catalytic domain, sequence (P23458 850-1154): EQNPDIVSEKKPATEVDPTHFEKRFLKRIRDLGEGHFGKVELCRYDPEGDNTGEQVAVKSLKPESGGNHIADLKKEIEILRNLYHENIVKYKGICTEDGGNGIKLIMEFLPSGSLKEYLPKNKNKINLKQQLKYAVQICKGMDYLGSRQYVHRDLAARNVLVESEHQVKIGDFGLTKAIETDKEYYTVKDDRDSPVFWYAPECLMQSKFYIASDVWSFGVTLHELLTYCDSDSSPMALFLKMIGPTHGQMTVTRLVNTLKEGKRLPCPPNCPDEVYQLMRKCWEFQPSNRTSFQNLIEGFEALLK

Row | SMILES | IC50 ([1]; semi-quantitative score) | EC50 [2] | Microsomal Stability Rat (%) [3] | IC50 ([4]; semi-quantitative score) | EC50 [5] | IC50 ([6]; semi-quantitative score) | Microsomal Stability Human (%) [7] | Papp A→B at 1 h, 10 µM [8] | efflux ratio at 1 h, 10 µM [8] | IC50 [9] | IC50 [1] | IC50 [4] | IC50 [6]
1 | O=C(Nc1nc2cccc(-c3ccc(S(=O)(=O)NC4CC4)cc3)n2n1)C1CC1 [Compound 13, N-(5-(4-(N-cyclopropylsulfamoyl)phenyl)-[1,2,4]triazolo[1,5-a]pyridin-2-yl)cyclopropanecarboxamide] | < 100 nM | > 1000 nM | **** (**** 76-100) | < 100 nM | > 1000 nM | 501 to 1000 nM | *** (*** 51-75) | 3.03 ×10⁻⁶ cm/s | 11.9 | > 1000 nM |  |  | 
2 | O=C(Nc1nc2cccc(-c3ccc(OCc4ccccc4)c(F)c3)n2n1)C1CC1 [Compound 15, N-(5-(4-(benzyloxy)-3-fluorophenyl)-[1,2,4]triazolo[1,5-a]pyridin-2-yl)cyclopropanecarboxamide] | < 100 nM | 101 to 500 nM | * (* 0-25) | < 100 nM | > 1000 nM | > 1000 nM | ** (** 26-50) |  | 0.91 | 101 to 500 nM |  |  | 
3 | O=C(Nc1nc2cccc(-c3ccc(C(=O)N4CCCCC4)cc3)n2n1)C1CC1 [Compound 17] | < 100 nM | > 1000 nM | ** (** 26-50) | 101 to 500 nM | > 1000 nM | 501 to 1000 nM | **** (**** 76-100) | 11.4 ×10⁻⁶ cm/s | 2.97 | > 1000 nM |  |  | 
4 | O=C(Nc1nc2cccc(-c3ccc(OC4CCCC4)cc3)n2n1)C1CC1 [Compound 40, N-(5-(4-(cyclopentyloxy)phenyl)-[1,2,4]triazolo[1,5-a]pyridin-2-yl)cyclopropanecarboxamide] | < 100 nM | 101 to 500 nM | * (* 0-25) | < 100 nM | 1 to 500 nM | 501 to 1000 nM | * (* 0-25) | 44.9 ×10⁻⁶ cm/s | 0.67 | 501 to 1000 nM |  |  | 
5 | Cn1ccc(COc2ccc(-c3cccc4nc(NC(=O)C5CC5)nn34)cc2)n1 [Compound 48] | < 100 nM | > 1000 nM | *** (*** 51-75) | 101 to 500 nM | > 1000 nM | > 1000 nM | *** (*** 51-75) | 28.8 ×10⁻⁶ cm/s | 1 | > 1000 nM |  |  | 
6 | Cc1n[nH]c(C)c1CCOc1ccc(-c2cccc3nc(NC(=O)C4CC4)nn23)cc1 [Compound 51] | < 100 nM | 101 to 500 nM | * (* 0-25) | < 100 nM | > 1000 nM | 501 to 1000 nM | * (* 0-25) | 10.9 ×10⁻⁶ cm/s | 3.64 | 501 to 1000 nM |  |  | 
7 | O=C(Nc1nc2cccc(-c3ccc(OCc4ccccc4)nc3)n2n1)C1CC1 [Compound 57, Cyclopropanecarboxylic Acid [5-(6-benzyloxy-pyridin-3-yl)-[1,2,4]triazolo[1,5-a]pyridin-2-yl]-amide] |  | > 1000 nM | ** (** 26-50) |  | > 1000 nM |  | ** (** 26-50) |  |  | 501 to 1000 nM | < 100 nM | < 100 nM | > 1000 nM

Second part, led by results:

Row | IC50 ([1]; semi-quantitative score) | EC50 [2] | Microsomal Stability Rat (%) [3] | IC50 ([4]; semi-quantitative score) | EC50 [5] | IC50 ([6]; semi-quantitative score) | Microsomal Stability Human (%) [7] | Papp A→B at 1 h, 10 µM [8] | efflux ratio at 1 h, 10 µM [8] | IC50 [9] | SMILES | IC50 [1] | IC50 [4] | IC50 [6]
8 | < 100 nM | > 1000 nM | *** (*** 51-75) | < 100 nM | > 1000 nM | 101 to 500 nM | **** (**** 76-100) |  |  | > 1000 nM | O=C(Nc1nc2cccc(-c3ccc(NS(=O)(=O)c4ccccc4F)cc3)n2n1)C1CC1 [Compound 54, N-(5-(4-(2-fluorophenylsulfonamido)phenyl)-[1,2,4]triazolo[1,5-a]pyridin-2-yl)cyclopropanecarboxamide] |  |  | 
9 | < 100 nM | > 1000 nM | * (* 0-25) | 101 to 500 nM | > 1000 nM | > 1000 nM | **** (**** 76-100) |  |  | > 1000 nM | O=C(NCc1ccccc1)c1ccc(-c2cccc3nc(NC(=O)C4CC4)nn23)cc1 [Compound 56, N-benzyl-4-(2-(cyclopropanecarboxamido)-[1,2,4]triazolo[1,5-a]pyridin-5-yl)benzamide] |  |  | 
10 | < 100 nM | > 1000 nM | * (* 0-25) | 101 to 500 nM | 501 to 1000 nM | > 1000 nM | * (* 0-25) |  |  | > 1000 nM | O=C(Nc1nc2cccc(-c3ccc(C(=O)N4CCc5ccccc5C4)cc3)n2n1)C1CC1 [Compound 58] |  |  | 
11 | < 100 nM | > 1000 nM | * (* 0-25) | < 100 nM | > 1000 nM | > 1000 nM | ** (** 26-50) |  |  | 101 to 500 nM | Cc1cc(COc2ccc(-c3cccc4nc(NC(=O)C5CC5)nn34)cc2)nn1C [Compound 62] |  |  | 
12 | < 100 nM | 501 to 1000 nM | * (* 0-25) | < 100 nM | 501 to 1000 nM | > 1000 nM | * (* 0-25) | 19 ×10⁻⁶ cm/s | 2.5 | 501 to 1000 nM | O=C(CCc1ccccc1)Nc1ccc(-c2cccc3nc(NC(=O)C4CC4)nn23)cc1 [Compound 109, N-(5-(4-(3-phenylpropanamido)phenyl)-[1,2,4]triazolo[1,5-a]pyridin-2-yl)cyclopropanecarboxamide] |  |  | 
13 | < 100 nM | > 1000 nM | * (* 0-25) | 101 to 500 nM | > 1000 nM | > 1000 nM | *** (*** 51-75) |  |  | 501 to 1000 nM | O=C(COc1ccc(-c2cccc3nc(NC(=O)C4CC4)nn23)cc1)Nc1cccc(F)c1 [Compound 116, N-(5-(4-(2-(3-fluorophenylamino)-2-oxoethoxy)phenyl)-[1,2,4]triazolo[1,5-a]pyridin-2-yl)cyclopropanecarboxamide] |  |  | 
14 | < 100 nM | > 1000 nM | ** (** 26-50) | 101 to 500 nM | > 1000 nM | > 1000 nM | * (* 0-25) |  |  | > 1000 nM | O=C(N[C@H]1CCN(Cc2ccccc2)C1)c1ccc(-c2cccc3nc(NC(=O)C4CC4)nn23)cc1 [Compound 119, (S)-N-(1-benzylpyrrolidin-3-yl)-4-(2-(cyclopropanecarboxamido)-[1,2,4]triazolo[1,5-a]pyridin-5-yl)benzamide] |  |  | 
15 | < 100 nM | 501 to 1000 nM | * (* 0-25) | < 100 nM | > 1000 nM | > 1000 nM | * (* 0-25) |  |  | 501 to 1000 nM | O=C(Nc1nc2cccc(-c3ccc4c(ccn4Cc4ccccc4)c3)n2n1)C1CC1 [Compound 121, Cyclopropanecarboxylic Acid [5-(1-benzyl-1H-indol-5-yl)-[1,2,4]triazolo[1,5-a]pyridin-2-yl]-amide] |  |  | 
16 | < 100 nM | 101 to 500 nM | ** (** 26-50) | < 100 nM |  | 101 to 500 nM | ** (** 26-50) | 4.1 ×10⁻⁶ cm/s | 11.5 | 101 to 500 nM | O=C(Nc1nc2cccc(-c3ccc(C(=O)N4CCC(O)(Cc5ccccc5)CC4)cc3)n2n1)C1CC1 [Compound 156, N-(5-(4-(4-benzyl-4-hydroxypiperidine-1-carbonyl)phenyl)-[1,2,4]triazolo[1,5-a]pyridin-2-yl)cyclopropanecarboxamide] |  |  | 
